Where two headings read alike, the source gives them in different places.
How the values were obtained:
calmodulin [1] = details: amino- and carboxy-terminal deletion peptides; ref [38]; cited from earlier work
[2] = biological target: calcium-saturated calmodulin (CaM·4Ca^2+) (Sus scrofa, UniProt F2Z5G3)
calmodulin [3] = details: read-out: dissociation constant; 4°C, pH 7.0; equilibrium dialysis; ref [35]; cited from earlier work
calmodulin [4] = details: read-out: dissociation constant; 25°C, pH 7.3; fluorescence of dansylcalmodulin; ref [33]; cited from earlier work
[5] = biological target: calcium-saturated calmodulin (CaM·4Ca^2+) (Homo sapiens, UniProt P0DP23)
[6] = biological target: Porcine calmodulin saturated with calcium (CaM·4Ca2+) (porcine); assay: HDX-MS
[7] = biological target: Porcine calmodulin saturated with calcium (CaM·4Ca2+) (porcine); assay: HDX-MS; remark: listed apart in the source
[8] = from ΔD1, corrected for 50% D2O

Chain of β-endorphin (P01189 237-267): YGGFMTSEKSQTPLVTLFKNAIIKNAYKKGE

Row | Compound | domain responsible for inhibition of calmodulin function (calmodulin [1]) | ΔD1 (difference in deuterium uptake between bound and unbound peptide) ([2]; dPLIMSTEX, peptide mass readout, 50% D2O) | backbone amides of the peptide protected upon binding to CaM·4Ca^2+ [2, 8] | Kd (calmodulin [3]) [µM] | Kd (calmodulin [4]) [µM] | backbone amide protons of CaM·4Ca^2+ that become protected on binding [5, 8] | ΔD1 (difference in deuterium uptake of the protein on binding) ([5]; traditional PLIMSTEX, protein mass readout, 50% D2O) | Ka [6] [M⁻¹] | Kd [6] [µM] | Ka [7] [M⁻¹] | Kd [7] [µM]
1 | CC[C@H](C)[C@H](NC(=O)[C@H](C)NC(=O)[C@H](CC(N)=O)NC(=O)[C@H](CCCCN)NC(=O)[C@H](Cc1ccccc1)NC(=O)[C@H](CC(C)C)NC(=O)[C@@H](NC(=O)[C@@H](NC(=O)[C@H](CC(C)C)NC(=O)[C@@H]1CCCN1C(=O)[C@@H](NC(=O)[C@H](CCC(N)=O)NC(=O)[C@H](CO)NC(=O)[C@H](CCCCN)NC(=O)[C@H](CCC(=O)O)NC(=O)[C@H](CO)NC(=O)[C@@H](NC(=O)[C@H](CCSC)NC(=O)[C@H](Cc1ccccc1)NC(=O)CNC(=O)CNC(=O)[C@@H](N)Cc1ccc(O)cc1)[C@@H](C)O)[C@@H](C)O)C(C)C)[C@@H](C)O)C(=O)N[C@H](C(=O)N[C@@H](CCCCN)C(=O)N[C@@H](CC(N)=O)C(=O)N[C@@H](C)C(=O)N[C@@H](Cc1ccc(O)cc1)C(=O)N[C@@H](CCCCN)C(=O)N[C@@H](CCCCN)C(=O)NCC(=O)N[C@@H](CCC(=O)O)C(=O)O)[C@@H](C)CC [β-endorphin] | residues 14–25 | 3.96 ± 0.09 | at least eight | 2.5 to 4.6 | 1.9 to 3.8 | approximately 30 | 15.0 | – | – | – | –
2 | β-endorphin (from UniProt P01189 237-267) (peptide) | – | – | – | – | – | – | – | 220000 | 4.5 | 205000 | 4.9

Reference: PMC2932787 (Journal of the American Society for Mass Spectrometry, 2010)
